PubChem BioAssay (NCI)
Where “and” joins values, the source holds several entries; their conditions need not be identical. Equal values may be shown once.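 Each compound was tested at five concentrations against cells in 96-well plates for 48 hours. GI50 = concentration required for 50% inhibition of growth. TGI is the concentration that stops growth completely.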

Experiments:
Assay in all cases: NCI anticancer screen, dose series, 48 h
HCT-116 colon = test system: HCT-116 colon
HCT-15 colon = test system: HCT-15 colon
HT29 colon = test system: HT29 colon
NCI-H226 lung = test system: NCI-H226 lung
OVCAR-5 ovarian = test system: OVCAR-5 ovarian
RPMI-8226 leukemia = test system: RPMI-8226 leukemia
SW-620 colon = test system: SW-620 colon
TK-10 renal = test system: TK-10 renal
HOP-62 NSCLC = test system: HOP-62 NSCLC
OVCAR-3 ovarian = test system: OVCAR-3 ovarian

## Cn1c2ccccc2c2c(Nc3ccccc3)c3ccccc3nc21
HCT-116 colon
  GI50: 13.2 µM
  TGI: 36.1 µM
HCT-15 colon
  GI50: 14.1 µM
  TGI: 60.5 µM
HT29 colon
  GI50: 5.66 µM
  TGI: 60.7 µM
NCI-H226 lung
  GI50: 16.4 µM
  TGI: 46.4 µM
OVCAR-5 ovarian
  GI50: > 100 µM
  TGI: > 100 µM
RPMI-8226 leukemia
  GI50: 3.34 µM
  TGI: 30.5 µM
SW-620 colon
  GI50: 17.1 µM
  TGI: 58.3 µM
TK-10 renal
  GI50: 15.8 µM
  TGI: 43.8 µM

## O=S1(=O)c2ccccc2NC(c2ccc3ccccc3c2)CC1c1ccccc1F (configuration not stated)
HCT-15 colon
  TGI: > 100 µM
HOP-62 NSCLC
  TGI: > 100 µM
HT29 colon
  TGI: > 100 µM
NCI-H226 lung
  TGI: > 100 µM
OVCAR-3 ovarian
  TGI: > 100 µM
OVCAR-5 ovarian
  TGI: > 100 µM
RPMI-8226 leukemia
  TGI: > 100 µM
SW-620 colon
  TGI: > 100 µM
TK-10 renal
  TGI: > 100 µM

## CO[C@H](C(=O)[C@@H](O)[C@@H](C)O)[C@@H]1Cc2cc3cc(O[C@H]4C[C@@H](O[C@H]5C[C@@H](O)[C@H](O)C(C)O5)[C@H](O)C(C)O4)c(C)c(O)c3c(O)c2C(=O)[C@H]1O[C@H]1C[C@@H](O[C@H]2C[C@@H](O[C@H]3C[C@](C)(O)C(=O)C(C)O3)[C@@H](O)C(C)O2)[C@H](O)C(C)O1 (some centres not stated)
HCT-116 colon
  GI50: 0.0444 µM
  TGI: > 15.7 µM
HCT-15 colon
  GI50: 0.889 µM
  TGI: > 33.2 µM
HOP-62 NSCLC
  GI50: 0.0653 µM
HT29 colon
  GI50: 0.0852 µM
  TGI: 0.866 µM
NCI-H226 lung
  GI50: 0.0457 µM
  TGI: 0.3 µM
OVCAR-3 ovarian
  GI50: 0.0907 µM
  TGI: 3.54 µM
OVCAR-5 ovarian
  GI50: 0.115 µM
  TGI: > 22.1 µM
RPMI-8226 leukemia
  GI50: 0.1 µM
  TGI: 1.61 µM
SW-620 colon
  GI50: 0.075 µM
  TGI: > 33.2 µM
TK-10 renal
  GI50: 0.21 µM
  TGI: > 11.8 µM

## O=CC[C@H]1C(=O)C[C@@H]2CCC[C@@H]21
HCT-116 colon
  TGI: > 100 µM
HCT-15 colon
  TGI: > 100 µM
HOP-62 NSCLC
  TGI: > 100 µM
HT29 colon
  TGI: > 100 µM
NCI-H226 lung
  TGI: > 100 µM
OVCAR-3 ovarian
  TGI: > 100 µM
OVCAR-5 ovarian
  TGI: > 100 µM
RPMI-8226 leukemia
  TGI: > 100 µM
SW-620 colon
  TGI: > 100 µM
TK-10 renal
  TGI: > 100 µM

## CC[C@@]1(O)C[C@H](OC2CC(N(C)C)C(O)C(C)O2)c2c(O)c3c(c(O)c2[C@H]1OC1CC(N(C)C)C(O)C(C)O1)C(=O)c1cccc(O)c1C3=O (some centres not stated)
HCT-116 colon
  GI50: < 0.01 µM
HCT-15 colon
  GI50: 0.0238 µM
  TGI: 0.971 µM and 1.29 µM
HOP-62 NSCLC
  GI50: < 0.01 µM
  TGI: 0.192 µM
HT29 colon
  GI50: < 0.01 µM
  TGI: 0.353 µM and 0.109 µM
NCI-H226 lung
  GI50: < 0.01 µM
OVCAR-3 ovarian
  GI50: < 0.01 µM
  TGI: < 0.01 µM
OVCAR-5 ovarian
  GI50: < 0.01 µM
RPMI-8226 leukemia
  GI50: < 0.01 µM
  TGI: 0.581 µM and 0.0919 µM
SW-620 colon
  GI50: < 0.01 µM
  TGI: 0.0149 µM
TK-10 renal
  GI50: < 0.01 µM

## C=C(CN1CCN(c2ccc(Cl)cc2F)CC1)c1ccc(C(=O)Nc2ccccc2N)cc1
HCT-116 colon
  GI50: 1.85 µM
  TGI: > 94.2 µM
HCT-15 colon
  GI50: 2.16 µM
  TGI: > 100 µM
HOP-62 NSCLC
  GI50: 3.42 µM
  TGI: 27.8 µM
HT29 colon
  GI50: 2.96 µM
  TGI: > 100 µM
NCI-H226 lung
  GI50: 3.29 µM
  TGI: > 100 µM
OVCAR-3 ovarian
  GI50: 2.29 µM
  TGI: > 100 µM
OVCAR-5 ovarian
  GI50: 51.7 µM
  TGI: > 100 µM
RPMI-8226 leukemia
  GI50: 0.628 µM
  TGI: 3.21 µM
SW-620 colon
  GI50: 3.06 µM
  TGI: > 100 µM
TK-10 renal
  GI50: 3.53 µM
  TGI: > 100 µM

## Nc1ccccc1SC(C[N+](=O)[O-])c1ccc2c(c1)OCO2 (configuration not stated)
HCT-116 colon
  TGI: 3.71 µM
HCT-15 colon
  TGI: 10.3 µM
HOP-62 NSCLC
  TGI: 4.38 µM
HT29 colon
  TGI: 3.81 µM
NCI-H226 lung
  TGI: 32.4 µM
OVCAR-3 ovarian
  TGI: 12.4 µM
OVCAR-5 ovarian
  TGI: 9.85 µM
RPMI-8226 leukemia
  TGI: 4.42 µM
SW-620 colon
  TGI: 7.74 µM
TK-10 renal
  TGI: 7.09 µM

## NC(=O)c1sc(-n2cnc3ccccc32)cc1OCc1ccccc1Br
HCT-116 colon
  GI50: 2.61 µM
  TGI: > 25 µM
HCT-15 colon
  GI50: 6.95 µM
  TGI: > 25 µM
HOP-62 NSCLC
  GI50: 3.67 µM
  TGI: > 25 µM
HT29 colon
  GI50: 1.06 µM
  TGI: > 25 µM
NCI-H226 lung
  GI50: 11.9 µM
  TGI: > 25 µM
OVCAR-3 ovarian
  GI50: 1.55 µM
  TGI: 17.6 µM
OVCAR-5 ovarian
  GI50: 4.94 µM
  TGI: > 25 µM
RPMI-8226 leukemia
  GI50: 12.6 µM
  TGI: > 25 µM
SW-620 colon
  GI50: 1.17 µM
  TGI: > 25 µM
TK-10 renal
  GI50: 11.3 µM
  TGI: > 25 µM

## Clc1ccc2c(NCCCCNc3nc(N4CCCCC4)nc4ccccc34)ccnc2c1
HCT-116 colon
  GI50: 1.2 µM
  TGI: 3.06 µM
HCT-15 colon
  GI50: 1.15 µM
  TGI: 3.13 µM
HOP-62 NSCLC
  GI50: 1.9 µM
  TGI: 5.88 µM
HT29 colon
  GI50: 1.63 µM
  TGI: 4.86 µM
NCI-H226 lung
  GI50: 3.85 µM
  TGI: 16.5 µM
OVCAR-3 ovarian
  GI50: 1.95 µM
  TGI: 4.89 µM
OVCAR-5 ovarian
  GI50: 2.17 µM
  TGI: 9.23 µM
RPMI-8226 leukemia
  GI50: 1.46 µM
  TGI: 3.94 µM
SW-620 colon
  GI50: 1.59 µM
  TGI: 4.78 µM
TK-10 renal
  GI50: 1.68 µM
  TGI: 3.5 µM

## Clc1cc2nsnc2c(Cl)n1
HCT-15 colon
  TGI: 45.6 µM
HOP-62 NSCLC
  TGI: > 100 µM
HT29 colon
  TGI: 49.3 µM
NCI-H226 lung
  TGI: 42.3 µM
OVCAR-3 ovarian
  TGI: 33.4 µM
OVCAR-5 ovarian
  TGI: > 100 µM
RPMI-8226 leukemia
  TGI: 62.5 µM
SW-620 colon
  TGI: 27.8 µM
TK-10 renal
  TGI: 44 µM

## O=C1/C(=C/c2ccccc2)CN(C(=O)C(Cl)(Cl)Cl)C/C1=C\c1ccccc1
HCT-116 colon
  TGI: 1.36 µM
HCT-15 colon
  TGI: 3.58 µM
HT29 colon
  TGI: 2.75 µM
OVCAR-3 ovarian
  TGI: 7.88 µM
OVCAR-5 ovarian
  TGI: 6.42 µM
RPMI-8226 leukemia
  TGI: 0.314 µM
SW-620 colon
  TGI: 1.82 µM
TK-10 renal
  TGI: 8.72 µM

## CC1(c2ccc(F)cc2)C(C#N)C(=O)NC(=O)C1C#N (configuration not stated)
HCT-15 colon
  TGI: > 100 µM
HOP-62 NSCLC
  TGI: > 100 µM
HT29 colon
  TGI: > 100 µM
NCI-H226 lung
  TGI: > 100 µM
OVCAR-3 ovarian
  TGI: > 100 µM
OVCAR-5 ovarian
  TGI: > 100 µM
RPMI-8226 leukemia
  TGI: > 100 µM
SW-620 colon
  TGI: > 100 µM
TK-10 renal
  TGI: > 100 µM

## CCCCCN(CCCCC)CC(O)c1cc(C)c2ccc3cc(C(C)C)ccc3c2c1 (configuration not stated)
HCT-116 colon
  GI50: 1.73 µM
  TGI: 3.32 µM
HCT-15 colon
  GI50: 1.81 µM
  TGI: 3.43 µM
HOP-62 NSCLC
  GI50: 2.12 µM
  TGI: 5.7 µM
NCI-H226 lung
  GI50: 1.85 µM
  TGI: 3.97 µM
OVCAR-3 ovarian
  GI50: 1.92 µM
  TGI: 3.41 µM
OVCAR-5 ovarian
  GI50: 1.8 µM
  TGI: 3.66 µM
RPMI-8226 leukemia
  GI50: 2.11 µM
  TGI: 4.81 µM
SW-620 colon
  GI50: 1.81 µM
  TGI: 3.61 µM
TK-10 renal
  GI50: 1.89 µM
  TGI: 3.51 µM

## CCOC(=O)C1=C(C)NC(=S)NC1c1ccccc1 (configuration not stated)
HCT-116 colon
  TGI: > 100 µM
HCT-15 colon
  TGI: > 56 µM
HOP-62 NSCLC
  TGI: > 100 µM
HT29 colon
  TGI: > 100 µM
NCI-H226 lung
  TGI: > 100 µM
OVCAR-3 ovarian
  TGI: > 100 µM
OVCAR-5 ovarian
  TGI: > 100 µM
RPMI-8226 leukemia
  TGI: > 65.6 µM
TK-10 renal
  TGI: > 100 µM

## O=C(N/C(=C\c1ccc(/C=C(\NC(=O)c2ccccc2)c2nc3cc([N+](=O)[O-])ccc3[nH]2)cc1)c1nc2cc([N+](=O)[O-])ccc2[nH]1)c1ccccc1
HCT-116 colon
  TGI: > 100 µM
HCT-15 colon
  TGI: > 100 µM
HOP-62 NSCLC
  TGI: > 100 µM
HT29 colon
  TGI: > 100 µM
OVCAR-3 ovarian
  TGI: > 100 µM
OVCAR-5 ovarian
  TGI: > 100 µM
RPMI-8226 leukemia
  TGI: > 100 µM
SW-620 colon
  TGI: > 100 µM
TK-10 renal
  TGI: 78.5 µM
